Values after ≈ are worked out from the molar mass of the structure shown. Where two headings read alike, the source gives them in different places. Bridge positions count the residues as written; N and C are the ends. Square brackets hold non-standard residues; d marks the D form. Peptide text beside a SMILES is read from it. * marks the point of attachment. dCha = N[C@H](CC1CCCCC1)C(=O)O; X15 = NCCC(CC1CCCC1)C(=O)*; Dab = NCC[C@H](N)C(=O)O; Dap = NC[C@H](N)C(=O)O
How the values were obtained:
Type in all cases: cell-based
Acinetobacter baumannii = test system: Acinetobacter baumannii
Protocol: (§1) To evaluate the potency and spectrum of the compounds, susceptibility testing was performed against up to nine strains of each of the Gram negative pathogens, Escherichia coli, Pseudomonas aeruginosa, Klebsiella pneumoniae and Acinetobacter baumannii.
(§2) The values in Table 2 are MIC (μg/mL) against strains of E. coli, K. pneumoniae, P. aeruginosa and A. baumanii, including strains which show elevated MICs to Polymyxin.
(§3) The values in Table 2A are MIC (μg/mL).
(§4) The in vitro activity of compounds 26 and C7 (FADDI-02) against resistant bacterial strains was compared. The resistant strains included including Escherichia coli, Pseudomonas aeruginosa, Klebsiella pneumoniae and Acinetobacter baumannii strains. The data is provided in Table 2C, where the strains are identified. The values in Table 2 are MIC (μg/mL).

Escherichia coli = settings: for MIC E. coli NCTC 9001: strain NCTC 9001
Protocol: as §1, §2, §3, §4

Klebsiella pneumoniae = test system: Klebsiella pneumoniae
Protocol: as §1, §2, §3, §4

Pseudomonas aeruginosa = test system: Pseudomonas aeruginosa
Protocol: as §1, §2, §3, §4

Compound | MIC A. baumanii 053 (Acinetobacter baumannii; strain 053) [µg/mL] | MIC A. baumanii 056 (Acinetobacter baumannii; strain 056) [µg/mL] | MIC A. baumanii ATCC BAA-747 (Acinetobacter baumannii; strain ATCC BAA-747) [µg/mL] | MIC A. baumanii NCTC 13424 (Acinetobacter baumannii; strain NCTC 13424) [µg/mL] | MIC E. coli 058 (Escherichia coli; strain 058) [µg/mL] | MIC E. coli 061 (Escherichia coli; strain 061) [µg/mL] | MIC E. coli ATCC 25922 (Escherichia coli; strain ATCC 25922) [µg/mL] | MIC E. coli NCTC 9001 (Escherichia coli) [µg/mL] | MIC K. pneumoniae 063 (Klebsiella pneumoniae; strain 063) [µg/mL] | MIC K. pneumoniae 065 (Klebsiella pneumoniae; strain 065) [µg/mL] | MIC K. pneumoniae ATCC 13882 (Klebsiella pneumoniae; strain ATCC 13882) [µg/mL] | MIC P. aeruginosa 068 (Pseudomonas aeruginosa; strain 068) [µg/mL] | MIC P. aeruginosa 070 (Pseudomonas aeruginosa; strain 070) [µg/mL] | MIC P. aeruginosa ATCC 27853 (Pseudomonas aeruginosa; strain ATCC 27853) [µg/mL] | MIC P. aeruginosa CCUG 59347 (Pseudomonas aeruginosa; strain CCUG 59347) [µg/mL] | MIC A. baumanii ATCC BAA-747 (Acinetobacter baumannii) [µg/mL] | MIC A. baumanii NCTC 13424 (Acinetobacter baumannii) [µg/mL] | MIC E. coli 058 (Escherichia coli) [µg/mL] | MIC E. coli ATCC 25922 (Escherichia coli) [µg/mL] | MIC K. pneumoniae 065 (Klebsiella pneumoniae) [µg/mL] | other results
CC(C)C[C@@H]1NC(=O)[C@@H](CC2CCCCC2)NC(=O)[C@H](CCN)NC(=O)[C@@H](NC(=O)[C@H](CCN)NC(=O)[C@@H](NC(=O)CC(CN)CC2CCCCC2)[C@@H](C)O)CCNC(=O)[C@H]([C@@H](C)O)NC(=O)[C@H](CCN)NC(=O)[C@H](CCN)NC1=O (single isomer, unassigned) [Example 72, 4-amino-3-(cyclohexylmethyl) butanoyl polymyxin [D-cyclohexylalanine]-6 nonapeptide] | 64 (≈ 55.6 µM) | 16 (≈ 13.9 µM) | 0.25 (≈ 0.217 µM) | 0.125 (≈ 0.109 µM) | 2 (≈ 1.74 µM) | 8 (≈ 6.95 µM) | 0.25 (≈ 0.217 µM) | 0.25 (≈ 0.217 µM) | 8 (≈ 6.95 µM) | 0.5 (≈ 0.435 µM) | 0.25 (≈ 0.217 µM) | 4 (≈ 3.48 µM) | 8 (≈ 6.95 µM) | 0.25 (≈ 0.217 µM) | 0.5 (≈ 0.435 µM) |  |  |  |  |  | 
CC(C)C[C@@H]1NC(=O)[C@@H](CC2CCCCC2)NC(=O)[C@H](CCN)NC(=O)[C@@H](NC(=O)[C@H](CN)NC(=O)[C@@H](NC(=O)CCC(N)c2ccccc2)[C@@H](C)O)CCNC(=O)[C@H]([C@@H](C)O)NC(=O)[C@H](CCN)NC(=O)[C@H](CCN)NC1=O (single isomer, unassigned; isomer 2) [Example 61, 4-amino-4-phenylbutanoyl L-Thr-L-Dap-polymyxin [D-cyclohexylalanine]-6 heptapeptide. Isomer 2] |  |  |  |  |  |  |  |  |  |  |  |  |  |  |  | 0.25 (≈ 0.224 µM) | 0.25 (≈ 0.224 µM) | 8 (≈ 7.17 µM) | 0.25 (≈ 0.224 µM) | 32 (≈ 28.7 µM) | MIC K. pneumoniae ATCC 13882 (Klebsiella pneumoniae): 0.25 µg/mL (≈ 0.224 µM); MIC P. aeruginosa ATCC 27853 (Pseudomonas aeruginosa): 0.25 µg/mL (≈ 0.224 µM); MIC P. aeruginosa CCUG 59347 (Pseudomonas aeruginosa): 0.5 µg/mL (≈ 0.448 µM)
CC(C)C[C@@H]1NC(=O)[C@@H](CC2CCCCC2)NC(=O)[C@H](CCN)NC(=O)[C@@H](NC(=O)[C@H](CN)NC(=O)[C@@H](NC(=O)C(CCN)CC2CCCC2)[C@@H](C)O)CCNC(=O)[C@H]([C@@H](C)O)NC(=O)[C@H](CCN)NC(=O)[C@H](CCN)NC1=O (stereo partly drawn) [Example 75, 4-amino-2-(cyclopentylmethyl) butanoyl L-Thr-L-Dap-polymyxin [D-cyclohexylalanine]-6 heptapeptide.] (X15-T[Dap][Dab][Dab][dCha]L[Dab][Dab]T; lactam 3-C) |  |  |  |  |  |  |  |  |  |  |  |  |  |  |  | 0.125 (≈ 0.111 µM) | 0.125 (≈ 0.111 µM) | 2 (≈ 1.78 µM) | 0.125 (≈ 0.111 µM) | 1 (≈ 0.891 µM) | MIC A. baumanii 053 (Acinetobacter baumannii): >64 µg/mL; MIC A. baumanii 056 (Acinetobacter baumannii): 64 µg/mL (≈ 57 µM); MIC E. coli 061 (Escherichia coli): 16 µg/mL (≈ 14.3 µM); MIC K. pneumoniae 063 (Klebsiella pneumoniae): 16 µg/mL (≈ 14.3 µM); MIC K. pneumoniae ATCC 13882 (Klebsiella pneumoniae): 0.125 µg/mL (≈ 0.111 µM); MIC P. aeruginosa 068 (Pseudomonas aeruginosa): 2 µg/mL (≈ 1.78 µM); MIC P. aeruginosa 070 (Pseudomonas aeruginosa): 2 µg/mL (≈ 1.78 µM); MIC P. aeruginosa ATCC 27853 (Pseudomonas aeruginosa): 0.25 µg/mL (≈ 0.223 µM); MIC P. aeruginosa CCUG 59347 (Pseudomonas aeruginosa): 0.25 µg/mL (≈ 0.223 µM)
CC(C)C[C@@H]1NC(=O)[C@@H](CC2CCCCC2)NC(=O)[C@H](CCN)NC(=O)[C@@H](NC(=O)[C@H](CN)NC(=O)[C@@H](NC(=O)CC(CN)C2CCCCC2)C(C)O)CCNC(=O)[C@H]([C@@H](C)O)NC(=O)[C@H](CCN)NC(=O)[C@H](CCN)NC1=O (single isomer, unassigned; isomer 1) [Example 42, 4-amino-3-cyclohexylbutanoyl L-Thr-L-Dap-polymyxin [D-cyclohexylalanine]-6 heptapeptide. Isomer 1] | >64 | 32 (≈ 28.5 µM) | 0.125 (≈ 0.111 µM) | 0.125 (≈ 0.111 µM) | 4 (≈ 3.56 µM) | 8 (≈ 7.13 µM) | 0.5 (≈ 0.445 µM) | 0.06 (≈ 0.0535 µM) | 32 (≈ 28.5 µM) | 2 (≈ 1.78 µM) | 0.25 (≈ 0.223 µM) | 2 (≈ 1.78 µM) | 4 (≈ 3.56 µM) | 0.5 (≈ 0.445 µM) | 0.5 (≈ 0.445 µM) |  |  |  |  |  | 

From patent US12146004B2, “Polymyxin compounds and uses thereof” (priority 2014, dated 2024)
